Laboratory results: patent publication US7074789B2, “Kinase inhibitors” (Amgen Inc., priority 1999, dated 2006)

Tests used:
Assay type in all cases: biochemical
ErbB2 = molecular target: T1, ErbB2 (Homo sapiens, UniProt P04626); assay: Kinase inhibition assay (33P transfer), ErbB2; settings: read-out: ErbB2-2
T1 construct: Kinases are expressed as either kinase domains or full length constructs; made in house
Procedure, shortened: (§1)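 GST/His-fusion kinases, E. coli or High Five expressed, affinity purified; 33P-ATP, plate-coated poly(Glu,Tyr) 4:1 or poly(Arg,Ser) 3:1; 0.5% H3PO4 wash, scintillant, LSC.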

IGFR-1 = molecular target: T2, IGFR-1 (Homo sapiens, UniProt P08069); assay: Kinase inhibition assay (33P transfer), IGFR-1; settings: Table 2, class symbols A-E
T2 construct: Kinases are expressed as either kinase domains or full length constructs; made in house
T2 sequence (P08069 31-1367): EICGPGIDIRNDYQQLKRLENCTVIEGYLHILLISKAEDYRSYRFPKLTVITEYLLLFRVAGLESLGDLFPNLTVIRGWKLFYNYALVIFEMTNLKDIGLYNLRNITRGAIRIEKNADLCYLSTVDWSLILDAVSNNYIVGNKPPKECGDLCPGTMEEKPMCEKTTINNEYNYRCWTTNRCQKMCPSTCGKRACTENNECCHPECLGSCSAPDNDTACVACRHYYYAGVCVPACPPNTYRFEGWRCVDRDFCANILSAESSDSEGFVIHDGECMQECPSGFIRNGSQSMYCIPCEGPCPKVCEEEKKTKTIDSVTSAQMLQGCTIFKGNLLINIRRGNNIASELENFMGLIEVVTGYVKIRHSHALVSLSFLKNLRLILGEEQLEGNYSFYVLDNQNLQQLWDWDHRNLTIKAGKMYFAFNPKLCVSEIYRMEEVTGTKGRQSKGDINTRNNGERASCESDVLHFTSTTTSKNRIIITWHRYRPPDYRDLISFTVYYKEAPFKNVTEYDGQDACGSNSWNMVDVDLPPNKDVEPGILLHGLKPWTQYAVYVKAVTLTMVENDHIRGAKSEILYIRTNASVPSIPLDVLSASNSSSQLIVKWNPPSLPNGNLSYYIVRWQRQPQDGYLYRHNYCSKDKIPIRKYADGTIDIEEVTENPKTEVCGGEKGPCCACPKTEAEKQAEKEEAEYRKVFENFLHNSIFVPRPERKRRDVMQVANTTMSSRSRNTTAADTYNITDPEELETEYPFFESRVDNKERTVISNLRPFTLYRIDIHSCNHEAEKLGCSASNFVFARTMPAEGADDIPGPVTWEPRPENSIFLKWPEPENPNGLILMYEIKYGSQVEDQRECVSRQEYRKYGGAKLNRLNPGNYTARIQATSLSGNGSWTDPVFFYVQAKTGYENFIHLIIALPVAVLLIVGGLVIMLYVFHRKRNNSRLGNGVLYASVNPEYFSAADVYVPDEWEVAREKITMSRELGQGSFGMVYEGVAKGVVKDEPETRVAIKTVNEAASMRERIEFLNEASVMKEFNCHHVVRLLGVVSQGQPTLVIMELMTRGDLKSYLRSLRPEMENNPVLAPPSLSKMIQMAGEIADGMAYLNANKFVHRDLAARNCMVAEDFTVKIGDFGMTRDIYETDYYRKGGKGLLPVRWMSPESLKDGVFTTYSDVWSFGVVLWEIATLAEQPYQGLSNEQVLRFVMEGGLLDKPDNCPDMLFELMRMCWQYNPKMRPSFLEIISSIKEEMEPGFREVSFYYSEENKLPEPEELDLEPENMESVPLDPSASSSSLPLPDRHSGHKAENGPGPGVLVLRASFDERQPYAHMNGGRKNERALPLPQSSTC

EGFR = molecular target: T3, EGFR (Homo sapiens, UniProt P00533); assay: Kinase inhibition assay (33P transfer), EGFR; settings: Table 2, class symbols A-E; read-out: EGFR-1
T3 construct: Kinases are expressed as either kinase domains or full length constructs; made in house
Procedure, shortened: as §1

Itk = molecular target: T4, Itk (Homo sapiens, UniProt Q08881); assay: Kinase inhibition assay (33P transfer), Itk; settings: Table 3, class symbols; read-out: Itk-1
T4 construct: Kinases are expressed as either kinase domains or full length constructs; made in house
T4 sequence (Q08881 1-620): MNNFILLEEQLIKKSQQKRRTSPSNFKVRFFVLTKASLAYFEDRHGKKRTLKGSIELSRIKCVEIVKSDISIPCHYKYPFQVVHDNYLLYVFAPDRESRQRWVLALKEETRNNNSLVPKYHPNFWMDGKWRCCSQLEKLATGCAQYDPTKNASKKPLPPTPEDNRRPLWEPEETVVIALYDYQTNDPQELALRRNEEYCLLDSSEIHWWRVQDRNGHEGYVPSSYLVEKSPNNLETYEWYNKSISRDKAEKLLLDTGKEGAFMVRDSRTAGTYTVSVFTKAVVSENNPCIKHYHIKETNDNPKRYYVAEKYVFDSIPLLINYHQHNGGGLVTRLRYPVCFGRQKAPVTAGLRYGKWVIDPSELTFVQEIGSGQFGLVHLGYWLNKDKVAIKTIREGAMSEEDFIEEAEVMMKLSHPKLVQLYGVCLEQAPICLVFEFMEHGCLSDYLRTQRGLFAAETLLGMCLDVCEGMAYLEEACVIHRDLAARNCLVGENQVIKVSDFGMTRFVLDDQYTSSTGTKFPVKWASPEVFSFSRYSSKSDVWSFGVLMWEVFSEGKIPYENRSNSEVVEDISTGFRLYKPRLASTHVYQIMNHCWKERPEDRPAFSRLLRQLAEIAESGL
Procedure, shortened: as §1

Zap-70 = molecular target: T5, Zap-70 (Homo sapiens, UniProt P43403); assay: Kinase inhibition assay (33P transfer), Zap-70; settings: Table 3, class symbols; read-out: Zap-1
T5 construct: Kinases are expressed as either kinase domains or full length constructs; made in house
T5 sequence (P43403 1-619): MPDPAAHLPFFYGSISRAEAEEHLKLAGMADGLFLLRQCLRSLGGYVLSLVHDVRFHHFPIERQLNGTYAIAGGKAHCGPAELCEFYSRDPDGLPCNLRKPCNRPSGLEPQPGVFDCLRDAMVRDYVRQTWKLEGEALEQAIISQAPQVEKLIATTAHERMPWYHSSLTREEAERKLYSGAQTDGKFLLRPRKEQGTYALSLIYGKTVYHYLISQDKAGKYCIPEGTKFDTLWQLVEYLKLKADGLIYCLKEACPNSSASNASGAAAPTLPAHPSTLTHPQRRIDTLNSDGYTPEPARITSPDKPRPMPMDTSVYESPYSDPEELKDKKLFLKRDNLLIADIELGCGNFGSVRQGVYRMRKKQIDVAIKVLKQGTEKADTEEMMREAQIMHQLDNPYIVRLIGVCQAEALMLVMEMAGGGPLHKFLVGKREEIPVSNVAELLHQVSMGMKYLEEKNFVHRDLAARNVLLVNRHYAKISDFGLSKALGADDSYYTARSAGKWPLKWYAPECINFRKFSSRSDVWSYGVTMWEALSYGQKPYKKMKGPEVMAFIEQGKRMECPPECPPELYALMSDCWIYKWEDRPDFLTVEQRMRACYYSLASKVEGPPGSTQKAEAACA
Procedure, shortened: (§2)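 Kinase domains or full-length kinases, GST- or His-tagged and expressed in E. coli or baculovirus/High Five cells, transferred 33PO4 from ATP onto plate-bound poly(Glu,Tyr) 4:1 or poly(Arg,Ser) 3:1. After incubation, plates were washed with 0.5% phosphoric acid and counted by liquid scintillation.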

c-Met = molecular target: T6, c-Met (Homo sapiens, UniProt P08581); assay: Kinase inhibition assay (33P transfer), c-Met; settings: Table 2, class symbols A-E; read-out: Met-1
T6 construct: Kinases are expressed as either kinase domains or full length constructs; made in house
Procedure, shortened: as §1

PDGFRB = molecular target: T7, PDGFRB (Homo sapiens, UniProt P09619); assay: Kinase inhibition assay (33P transfer), PDGFRB; settings: read-out: PDGFRB-1
T7 construct: Kinases are expressed as either kinase domains or full length constructs; made in house
T7 sequence (P09619 33-1106, species assumed): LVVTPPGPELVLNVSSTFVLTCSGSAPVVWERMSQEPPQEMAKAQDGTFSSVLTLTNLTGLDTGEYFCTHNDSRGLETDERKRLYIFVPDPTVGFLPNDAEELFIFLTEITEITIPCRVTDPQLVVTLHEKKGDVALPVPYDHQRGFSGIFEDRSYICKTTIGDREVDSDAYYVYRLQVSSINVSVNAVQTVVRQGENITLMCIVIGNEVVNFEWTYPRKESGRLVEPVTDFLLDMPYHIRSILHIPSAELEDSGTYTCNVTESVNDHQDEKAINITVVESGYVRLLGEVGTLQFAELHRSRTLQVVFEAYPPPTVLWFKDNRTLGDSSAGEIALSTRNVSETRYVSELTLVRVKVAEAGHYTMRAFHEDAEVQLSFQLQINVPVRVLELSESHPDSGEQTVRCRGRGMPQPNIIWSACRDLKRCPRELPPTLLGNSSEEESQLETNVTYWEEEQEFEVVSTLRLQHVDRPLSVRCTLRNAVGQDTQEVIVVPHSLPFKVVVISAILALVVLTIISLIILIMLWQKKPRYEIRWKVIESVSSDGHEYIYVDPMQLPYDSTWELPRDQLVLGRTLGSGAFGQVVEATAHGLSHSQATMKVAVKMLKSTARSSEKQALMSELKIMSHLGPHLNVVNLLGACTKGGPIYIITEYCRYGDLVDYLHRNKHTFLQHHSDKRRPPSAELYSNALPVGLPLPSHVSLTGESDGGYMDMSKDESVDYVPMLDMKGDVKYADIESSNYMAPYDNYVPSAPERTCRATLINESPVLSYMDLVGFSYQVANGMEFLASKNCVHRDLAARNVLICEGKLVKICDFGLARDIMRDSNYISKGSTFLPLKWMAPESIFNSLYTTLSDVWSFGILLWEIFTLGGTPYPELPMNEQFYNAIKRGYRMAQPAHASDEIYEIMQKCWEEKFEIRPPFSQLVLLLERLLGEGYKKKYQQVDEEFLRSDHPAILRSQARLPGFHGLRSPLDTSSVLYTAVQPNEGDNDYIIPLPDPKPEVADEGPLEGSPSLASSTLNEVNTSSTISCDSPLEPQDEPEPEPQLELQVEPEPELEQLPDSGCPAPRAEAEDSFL

AKT = molecular target: T8, AKT (Homo sapiens, UniProt Q9Y243); assay: Kinase inhibition assay (33P transfer), AKT; settings: Table 2, class symbols A-E; read-out: AKT3-1
T8 construct: Kinases are expressed as either kinase domains or full length constructs; made in house
T8 sequence (Q9Y243 whole entry, the tested form may be a part): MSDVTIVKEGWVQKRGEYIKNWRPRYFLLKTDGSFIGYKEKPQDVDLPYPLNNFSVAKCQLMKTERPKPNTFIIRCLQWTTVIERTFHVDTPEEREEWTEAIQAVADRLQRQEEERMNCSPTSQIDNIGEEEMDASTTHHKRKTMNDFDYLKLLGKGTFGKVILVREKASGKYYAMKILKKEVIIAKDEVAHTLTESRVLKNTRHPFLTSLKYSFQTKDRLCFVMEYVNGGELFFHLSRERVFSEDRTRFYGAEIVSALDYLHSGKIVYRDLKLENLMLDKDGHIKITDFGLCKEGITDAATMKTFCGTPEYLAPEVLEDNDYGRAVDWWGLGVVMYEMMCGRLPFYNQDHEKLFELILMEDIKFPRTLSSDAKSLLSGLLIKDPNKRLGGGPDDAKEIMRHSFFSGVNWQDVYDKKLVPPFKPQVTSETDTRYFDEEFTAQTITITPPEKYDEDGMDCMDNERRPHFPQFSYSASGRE
Procedure, shortened: as §2

Lck = molecular target: T9, Lck (Homo sapiens, UniProt P06239); assay: Kinase inhibition assay (33P transfer), Lck; settings: Table 3, class symbols; read-out: Lck-1
T9 construct: Kinases are expressed as either kinase domains or full length constructs; made in house
T9 sequence (P06239 whole entry, species assumed, the tested form may be a part): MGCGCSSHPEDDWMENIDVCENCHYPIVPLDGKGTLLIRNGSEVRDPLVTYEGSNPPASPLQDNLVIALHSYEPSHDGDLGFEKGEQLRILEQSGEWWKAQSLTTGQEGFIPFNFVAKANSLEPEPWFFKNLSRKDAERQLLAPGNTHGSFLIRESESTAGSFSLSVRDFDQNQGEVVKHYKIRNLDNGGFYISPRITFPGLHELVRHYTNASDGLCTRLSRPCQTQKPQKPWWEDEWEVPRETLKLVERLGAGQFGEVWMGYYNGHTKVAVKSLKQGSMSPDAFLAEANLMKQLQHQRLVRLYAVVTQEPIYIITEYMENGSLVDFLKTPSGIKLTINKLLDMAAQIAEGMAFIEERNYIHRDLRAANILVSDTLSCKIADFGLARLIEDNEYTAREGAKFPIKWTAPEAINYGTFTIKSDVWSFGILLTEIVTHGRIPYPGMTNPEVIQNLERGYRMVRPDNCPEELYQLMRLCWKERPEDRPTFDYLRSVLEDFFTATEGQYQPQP
Procedure, shortened: as §2

Kdr = molecular target: T10, Kdr (Homo sapiens, UniProt P35968); assay: Kinase inhibition assay (33P transfer), Kdr; settings: Table 3, class symbols; read-out: KDR-1
T10 construct: Kinases are expressed as either kinase domains or full length constructs; made in house
T10 sequence (P35968 20-1356, species assumed): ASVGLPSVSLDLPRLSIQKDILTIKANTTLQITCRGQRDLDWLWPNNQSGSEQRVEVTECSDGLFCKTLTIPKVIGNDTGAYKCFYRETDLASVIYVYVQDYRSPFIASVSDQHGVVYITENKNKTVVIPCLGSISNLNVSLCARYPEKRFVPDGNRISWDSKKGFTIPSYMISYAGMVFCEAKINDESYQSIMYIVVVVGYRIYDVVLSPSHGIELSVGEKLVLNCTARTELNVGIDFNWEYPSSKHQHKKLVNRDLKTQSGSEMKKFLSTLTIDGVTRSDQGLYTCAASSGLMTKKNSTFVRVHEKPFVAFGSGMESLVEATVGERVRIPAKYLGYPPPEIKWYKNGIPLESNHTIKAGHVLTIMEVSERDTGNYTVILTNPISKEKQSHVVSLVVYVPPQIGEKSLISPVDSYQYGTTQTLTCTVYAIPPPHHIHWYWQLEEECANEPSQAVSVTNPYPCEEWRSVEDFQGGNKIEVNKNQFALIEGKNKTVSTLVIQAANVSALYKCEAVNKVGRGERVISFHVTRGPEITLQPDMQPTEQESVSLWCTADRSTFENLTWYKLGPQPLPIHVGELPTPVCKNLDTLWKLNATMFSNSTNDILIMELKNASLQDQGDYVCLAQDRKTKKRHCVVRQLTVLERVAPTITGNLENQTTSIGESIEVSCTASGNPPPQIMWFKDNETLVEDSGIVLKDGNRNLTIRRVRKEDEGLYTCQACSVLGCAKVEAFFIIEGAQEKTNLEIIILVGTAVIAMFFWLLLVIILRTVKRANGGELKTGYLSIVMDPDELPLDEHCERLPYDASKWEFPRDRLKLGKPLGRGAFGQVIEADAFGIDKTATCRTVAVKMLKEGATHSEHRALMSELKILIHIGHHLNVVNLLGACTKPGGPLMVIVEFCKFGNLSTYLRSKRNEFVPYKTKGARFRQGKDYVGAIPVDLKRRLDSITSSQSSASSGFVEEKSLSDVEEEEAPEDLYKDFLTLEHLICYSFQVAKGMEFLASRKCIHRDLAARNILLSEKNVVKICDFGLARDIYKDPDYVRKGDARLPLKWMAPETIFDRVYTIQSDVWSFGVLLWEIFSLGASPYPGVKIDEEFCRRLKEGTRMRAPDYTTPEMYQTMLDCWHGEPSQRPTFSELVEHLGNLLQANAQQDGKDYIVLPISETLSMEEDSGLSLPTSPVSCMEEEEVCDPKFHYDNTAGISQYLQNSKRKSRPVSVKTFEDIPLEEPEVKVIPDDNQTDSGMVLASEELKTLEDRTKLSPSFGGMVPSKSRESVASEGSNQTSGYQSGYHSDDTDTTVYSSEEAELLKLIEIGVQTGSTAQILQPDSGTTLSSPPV
Procedure, shortened: as §2

| IC50 (ErbB2) | IC50 (IGFR-1) | IC50 (EGFR) | IC50 (Itk) | IC50 (Zap-70) | IC50 (c-Met) | IC50 (PDGFRB) | IC50 (AKT) | IC50 (Lck) | IC50 (Kdr) | SMILES |
| --- | --- | --- | --- | --- | --- | --- | --- | --- | --- | --- |
| 0.838 to 5.03 µM | > 9.43 µM | < 0.838 µM | > 9.43 µM | > 9.43 µM | 5.03 to 7.33 µM | > 9.43 µM | > 9.43 µM | > 9.43 µM | > 9.43 µM | FC(F)(F)Oc1cccc(Nc2ncnc(Nc3ccc4c(cnn4Cc4ccccc4)c3)n2)c1 [Compound 907] |
| < 0.888 µM | 0.888 to 5.33 µM | < 0.888 µM | 0.888 to 5.33 µM | 5.33 to 7.77 µM | < 0.888 µM | 0.888 to 5.33 µM | < 0.888 µM | 0.888 to 5.33 µM | < 0.888 µM | c1ccc(Cn2ncc3cc(Nc4ncnc(Nc5ccc6ncsc6c5)n4)ccc32)cc1 [Compound 900] |
| > 9.84 µM | > 9.84 µM | > 9.84 µM | > 9.84 µM | > 9.84 µM | > 9.84 µM | 0.874 to 5.25 µM | > 9.84 µM | > 9.84 µM | 0.874 to 5.25 µM | Fc1ccc(CNc2ncccc2-c2ncnc(Nc3ccc(N4CCOCC4)cc3)n2)cc1 [Compound 1106] |
| > 12.4 µM | 1.1 to 6.62 µM | 1.1 to 6.62 µM | 1.1 to 6.62 µM | > 12.4 µM | > 12.4 µM | 1.1 to 6.62 µM | > 12.4 µM | 9.65 to 12.4 µM | 9.65 to 12.4 µM | COc1cc(Nc2ncnc(-n3ccnc3Cl)n2)cc(OC)c1OC [Compound 1071] |

Further lines, the molecule ahead of its results:

| SMILES | IC50 (ErbB2) | IC50 (IGFR-1) | IC50 (EGFR) | IC50 (Itk) | IC50 (Zap-70) | IC50 (c-Met) | IC50 (PDGFRB) | IC50 (AKT) | IC50 (Lck) | IC50 (Kdr) |
| --- | --- | --- | --- | --- | --- | --- | --- | --- | --- | --- |
| COc1cc(Nc2ncnc(Nc3cc(-c4ccco4)[nH]n3)n2)cc(C(F)(F)F)c1 [Compound 821] | 0.958 to 5.75 µM | 0.958 to 5.75 µM | 0.958 to 5.75 µM | 0.958 to 5.75 µM | 0.958 to 5.75 µM | 0.958 to 5.75 µM | 0.958 to 5.75 µM | 5.75 to 8.39 µM | 0.958 to 5.75 µM | 0.958 to 5.75 µM |
| COc1cc(Nc2ncnc(-c3cccnc3Nc3cccc(C(C)=O)c3)n2)cc(OC)c1OC [Compound 831] | > 9.52 µM | > 9.52 µM | > 9.52 µM | > 9.52 µM | > 9.52 µM | 5.08 to 7.41 µM | < 0.847 µM | > 9.52 µM | > 9.52 µM | > 9.52 µM |
| CCOc1cccc(Nc2ncnc(Nc3cc(-c4ccc(C(=O)OC)cc4)n[nH]3)n2)c1 [Compound 812] | 5.56 to 8.11 µM | 0.927 to 5.56 µM | > 10.4 µM | 8.11 to 10.4 µM | > 10.4 µM | 0.927 to 5.56 µM | > 10.4 µM | > 10.4 µM | 0.927 to 5.56 µM | 8.11 to 10.4 µM |
| COc1ccc(Nc2ncnc(Nc3ccc4c(c3)C(=O)OC4)n2)cc1OC [Compound 894] | > 11.9 µM | > 11.9 µM | 6.33 to 9.23 µM | 9.23 to 11.9 µM | > 11.9 µM | > 11.9 µM | < 1.05 µM | > 11.9 µM | > 11.9 µM | 1.05 to 6.33 µM |
| Cc1cccc(Nc2ncnc(N(C)c3ccc4c(cnn4Cc4ccccc4)c3)n2)c1 [Compound 668] | < 0.949 µM | > 10.7 µM | < 0.949 µM | > 10.7 µM | > 10.7 µM | 5.69 to 8.3 µM | 8.3 to 10.7 µM | > 10.7 µM | 5.69 to 8.3 µM | 5.69 to 8.3 µM |
| CN(c1cccc(Cl)c1)c1ncnc(Nc2ccc3nn(C)cc3c2)n1 [Compound 675] | < 1.09 µM | 6.56 to 9.57 µM | < 1.09 µM | > 12.3 µM | > 12.3 µM | 1.09 to 6.56 µM | 1.09 to 6.56 µM | > 12.3 µM | 1.09 to 6.56 µM | 1.09 to 6.56 µM |
| COc1cc(Nc2ncnc(-c3cccnc3Nc3cccc(C(F)(F)F)c3)n2)cc(OC)c1OC [Compound 836] | > 9.03 µM | > 9.03 µM | > 9.03 µM | > 9.03 µM | > 9.03 µM | > 9.03 µM | > 9.03 µM | > 9.03 µM | > 9.03 µM | > 9.03 µM |
